Measured values from US11492361B2, “Compounds useful in HIV therapy” (GlaxoSmithKline Intellectual Property Development Limited, priority 2018, dated 2022).
Structures can show the parent of a compound that is named as a salt.

What follows are compounds tested on Jurkat HIV-luciferase clones (assay: Jurkat latency reversal assay). Settings: Homo sapiens, Jurkat, 48 h.
Format: cell-based
Method: Jurkat HIV-luciferase clones were maintained in RPMI medium 1640 (Gibco by Life Technologies) containing 10% (vol/vol) fetal bovine serum (SAFC/Sigma-Aldrich) and 25 units/mL penicillin, 25 units/mL streptomycin (Gibco by Life Technologies), and were split 1:4 every 3 to 4 days to maintain a cell density of ˜0.3 to 1 million cells/mL. The Jurkat clones were maintained with the addition of 500 nM EFV in the medium. Three Jurkat cell clones (C16, I15, and N6), each harboring one or two integrated HIV proviruses expressing the luciferase reporter gene, were added at equal amounts for a total of 5,000 cells per well to 384-well plates containing compound titrations. Dose-response testing was performed on compounds dissolved in dimethyl sulfoxide (DMSO, Fisher Scientific, Merelbeke, Belgium) dispensed in duplicate serial 3-fold, 14-point titrations using a D300e Digital Droplet Dispenser (Hewlett-Packard) to give final assay concentrations of 10 μM to 2.1 pM in 50 μL of medium at 0.5% DMSO (vol/vol) final concentration. Cells and compound were incubated at 37° C. for 48 hours, unless otherwise indicated, followed by the addition of 20 μL of Steady-Glo® Luciferase (Promega). Luminescence resulting from the induction of the virally expressed luciferase was measured using an EnVision 2102 Multilabel Plate Reader (Perkin Elmer). Dose-response relationships were analyzed with GraphPad PRISM 6 using a four-parameter logistic regression model to calculate the concentration of compound that gives half-maximal response (EC50) and the maximal percent activation compared to the vehicle control.

Q: For `CN[C@@H](C)C(=O)N[C@H]1CCS[C@H]2CC(C)(C)[C@@H](C(=O)N[C@H](C(=O)NCc3ccc(CNC(=O)[C@@H](NC(=O)[C@H]4N5C(=O)[C@@H](NC(=O)[C@H](C)NC)CCS[C@H]5CC4(C)C)c4ccccc4)cc3)c3ccccc3)N2C1=O` [compound 24, (4S,4′S,7S,7′S,9aS,9a′S)-N,N′-((1S,1′S)-((1,4-phenylenebis(methylene))bis(azanediyl))bis(2-oxo-1-phenylethane-2,1-diyl))bis(8,8-dimethyl-4-((S)-2-(methylamino)propanamido)-5-oxooctahydropyrrolo[2,1-b][1,3]thiazepine-7-carboxamide)], which EC50 is on record?
A: 47.9 nM

Q: `CN[C@@H](C)C(=O)N[C@H]1CCS[C@H]2CC(C)(C)[C@@H](C(=O)N[C@H]3c4ccccc4C[C@H]3OCCCCCCCCCCO[C@@H]3Cc4ccccc4[C@@H]3NC(=O)[C@H]3N4C(=O)[C@@H](NC(=O)[C@H](C)NC)CCS[C@H]4CC3(C)C)N2C1=O` [compound 57, (4S,4′S,7S,7′S,9aS,9a′S)-N,N′-((1S,1′S,2R,2′R)-(decane-1,10-diylbis(oxy))bis(2,3-dihydro-1H-indene-2,1-diyl))bis(8,8-dimethyl-4-((S)-2-(methylamino)propanamido)-5-oxooctahydropyrrolo[2,1-b][1,3]thiazepine-7-carboxamide) dihydrochloride] was tested. Which EC50 did it give?
A: 8.5 nM

Q: With `CN[C@@H](C)C(=O)N[C@H]1CCS[C@H]2CC(C)(C)[C@@H](C(=O)N[C@H](C(=O)NCC#CC#CCNC(=O)[C@@H](NC(=O)[C@H]3N4C(=O)[C@@H](NC(=S)[C@H](C)NC)CCS[C@H]4CC3(C)C)c3ccccc3)c3ccccc3)N2C1=O` [compound 31, (4S,7S,9aS)-N-((S)-2-((6-((S)-2-((4S,7S,9aS)-8,8-dimethyl-4-((S)-2-(methylamino)propanamido)-5-oxooctahydropyrrolo[2,1-b][1,3]thiazepine-7-carboxamido)-2-phenylacetamido)hexa-2,4-diyn-1-yl)amino)-2-oxo-1-phenylethyl)-8,8-dimethyl-4-((S)-2-(methylamino)propanethioamido)-5-oxooctahydropyrrolo[2,1-b][1,3]thiazepine-7-carboxamide dihydrochloride] as the compound, how does the EC50 read?
A: 25.8 nM

Q: How did the EC50 turn out when `CN[C@@H](C)C(=S)N[C@H]1CCS[C@H]2CC(C)(C)[C@@H](C(=O)N[C@H](COCc3ccc(COC[C@@H](NC(=O)[C@H]4N5C(=O)[C@@H](NC(=S)[C@H](C)NC)CCS[C@H]5CC4(C)C)c4ccccc4)cc3)c3ccccc3)N2C1=O` [compound 43, (4S,4′S,7S,7′S,9aS,9a′S)-N,N′-((1S,1′S)-((1,4-phenylenebis(methylene))bis(oxy))bis(1-phenylethane-2,1-diyl))bis(8,8-dimethyl-4-((S)-2-(methylamino)propanethioamido)-5-oxooctahydropyrrolo[2,1-b][1,3]thiazepine-7-carboxamide) dihydrochloride] was run?
A: 43.4 nM

Q: For `CN[C@@H](C)C(=S)N[C@H]1CCS[C@H]2CC(C)(C)[C@@H](C(=O)N[C@H]3c4ccccc4C[C@H]3OCCOCCO[C@@H]3Cc4ccccc4[C@@H]3NC(=O)[C@H]3N4C(=O)[C@@H](NC(=S)[C@H](C)NC)CCS[C@H]4CC3(C)C)N2C1=O` [compound 19, (4S,4′S,7S,7′S,9aS,9a′S)-N,N′-((1S,1′S,2R,2′R)-((oxybis(ethane-2,1-diyl))bis(oxy))bis(2,3-dihydro-1H-indene-2,1-diyl))bis(8,8-dimethyl-4-((S)-2-(methylamino)propanethioamido)-5-oxooctahydropyrrolo[2,1-b][1,3]thiazepine-7-carboxamide) dihydrochloride], which EC50 is on record?
A: 9.4 nM

Q: For `CN[C@@H](C)C(=S)N[C@H]1CCS[C@H]2CC(C)(C)[C@@H](C(=O)N[C@H]3c4ccccc4C[C@H]3OCC#CC#CCO[C@@H]3Cc4ccccc4[C@@H]3NC(=O)[C@H]3N4C(=O)[C@@H](NC(=S)[C@H](C)NC)CCS[C@H]4CC3(C)C)N2C1=O` [compound 15, (4S,4′S,7S,7′S,9aS,9a′S)-N,N′-((1S,1′S,2R,2′R)-(hexa-2,4-diyne-1,6-diylbis(oxy))bis(2,3-dihydro-1H-indene-2,1-diyl))bis(8,8-dimethyl-4-((S)-2-(methylamino)propanethioamido)-5-oxooctahydropyrrolo[2,1-b][1,3]thiazepine-7-carboxamide)], which EC50 is on record?
A: 15.3 nM

Q: `CN[C@@H](C)C(=O)N[C@H]1CCS[C@H]2CC(C)(C)[C@@H](C(=O)N[C@H](COCc3ccc4cc(COC[C@@H](NC(=O)[C@H]5N6C(=O)[C@@H](NC(=O)[C@H](C)NC)CCS[C@H]6CC5(C)C)c5ccccc5)ccc4c3)c3ccccc3)N2C1=O` [compound 62, (4S,4′S,7S,7′S,9aS,9a′S)-N,N′-((1S,1′S)-((naphthalene-2,6-diylbis(methylene))bis(oxy))bis(1-phenylethane-2,1-diyl))bis(8,8-dimethyl-4-((S)-2-(methylamino)propanamido)-5-oxooctahydropyrrolo[2,1-b][1,3]thiazepine-7-carboxamide)] was tested. Which EC50 did it give?
A: 4.2 nM

Q: With `CN[C@@H](C)C(=O)N[C@H]1CCS[C@H]2CC(C)(C)[C@@H](C(=O)N[C@H]3c4ccccc4C[C@H]3OCCCCCCCCO[C@@H]3Cc4ccccc4[C@@H]3NC(=O)[C@H]3N4C(=O)[C@@H](NC(=O)[C@H](C)NC)CCS[C@H]4CC3(C)C)N2C1=O` [compound 63, (4S,4′S,7S,7′S,9aS,9a′S)-N,N′-((1S,1′S,2R,2′R)-(octane-1,8-diylbis(oxy))bis(2,3-dihydro-1H-indene-2,1-diyl))bis(8,8-dimethyl-4-((S)-2-(methylamino)propanamido)-5-oxooctahydropyrrolo[2,1-b][1,3]thiazepine-7-carboxamide) dihydrochloride] as the compound, how does the EC50 read?
A: 11.6 nM

Q: How did the EC50 turn out when `CN[C@@H](C)C(=O)N[C@H]1CCS[C@H]2CC(C)(C)[C@@H](C(=O)N[C@H](COCc3ccc4ccc(COC[C@@H](NC(=O)[C@H]5N6C(=O)[C@@H](NC(=O)[C@H](C)NC)CCS[C@H]6CC5(C)C)c5ccccc5)cc4c3)c3ccccc3)N2C1=O` [compound 56, (4S,4′S,7S,7′S,9aS,9a′S)-N,N′-((1S,1′S)-((naphthalene-2,7-diylbis(methylene))bis(oxy))bis(1-phenylethane-2,1-diyl))bis(8,8-dimethyl-4-((S)-2-(methylamino)propanamido)-5-oxooctahydropyrrolo[2,1-b][1,3]thiazepine-7-carboxamide)] was run?
A: 2.9 nM

Q: Which EC50 does the source give for `CN[C@@H](C)C(=S)N[C@H]1CCS[C@H]2CC(C)(C)[C@@H](C(=O)N[C@H](COCC#CC#CCOC[C@@H](NC(=O)[C@H]3N4C(=O)[C@@H](NC(=S)[C@H](C)NC)CCS[C@H]4CC3(C)C)c3ccccc3)c3ccccc3)N2C1=O` [compound 35, (4S,4′S,7S,7′S,9aS,9a′S)-N,N′-((1S,1′S)-(hexa-2,4-diyne-1,6-diylbis(oxy))bis(1-phenylethane-2,1-diyl))bis(8,8-dimethyl-4-((S)-2-(methylamino)propanethioamido)-5-oxooctahydropyrrolo[2,1-b][1,3]thiazepine-7-carboxamide)] here?
A: 9 nM

Q: `CN[C@@H](C)C(=O)N[C@H]1CCS[C@H]2CC(C)(C)[C@@H](C(=O)N[C@H]3c4ccccc4C[C@H]3OCc3ccc(CO[C@@H]4Cc5ccccc5[C@@H]4NC(=O)[C@H]4N5C(=O)[C@@H](NC(=O)[C@H](C)NC)CCS[C@H]5CC4(C)C)cc3)N2C1=O` [compound 22, (4S,4′S,7S,7′S,9aS,9a′S)-N,N′-((1S,1′S,2R,2′R)-((1,4-phenylenebis(methylene))bis(oxy))bis(2,3-dihydro-1H-indene-2,1-diyl))bis(8,8-dimethyl-4-((S)-2-(methylamino)propanamido)-5-oxooctahydropyrrolo[2,1-b][1,3]thiazepine-7-carboxamide)] was tested. Which EC50 did it give?
A: 8.8 nM

Q: For `CN[C@@H](C)C(=O)N[C@H]1CCS[C@H]2CC(C)(C)[C@@H](C(=O)N[C@H](COCCCCCCCCOC[C@@H](NC(=O)[C@H]3N4C(=O)[C@@H](NC(=O)[C@H](C)NC)CCS[C@H]4CC3(C)C)c3ccccc3)c3ccccc3)N2C1=O` [compound 58, (4S,4′S,7S,7′S,9aS,9a′S)-N,N′-((1S,1′S)-(octane-1,8-diylbis(oxy))bis(1-phenylethane-2,1-diyl))bis(8,8-dimethyl-4-((S)-2-(methylamino)propanamido)-5-oxooctahydropyrrolo[2,1-b][1,3]thiazepine-7-carboxamide) dihydrochloride], which EC50 is on record?
A: 4.5 nM

Q: How did the EC50 turn out when `CN[C@@H](C)C(=O)N[C@H]1CCS[C@H]2CC(C)(C)[C@@H](C(=O)N[C@H](COCC#CC#CCOC[C@@H](NC(=O)[C@H]3N4C(=O)[C@@H](NC(=S)[C@H](C)NC)CCS[C@H]4CC3(C)C)c3ccccc3)c3ccccc3)N2C1=O` [compound 34, (4S,7S,9aS)-N-((S)-2-((6-((S)-2-((4S,7S,9aS)-8,8-dimethyl-4-((S)-2-(methylamino)propanamido)-5-oxooctahydropyrrolo[2,1-b][1,3]thiazepine-7-carboxamido)-2-phenylethoxy)hexa-2,4-diyn-1-yl)oxy)-1-phenylethyl)-8,8-dimethyl-4-((S)-2-(methylamino)propanethioamido)-5-oxooctahydropyrrolo[2,1-b][1,3]thiazepine-7-carboxamide] was run?
A: 36.3 nM
